Data taken from patent US8936941B2, “Compositions useful for cancer detection and treatment, a cancer stem cell model, and methods of production and use thereof” (priority 2008, dated 2015).
“Also recorded” adds a separate entry of the source.

Assays:
HCT116 tumor xenografts = assay: HCT116 tumor xenograft model in athymic nude mice, intratumoral treatment; format: in vivo
From the text: Real-time reverse transcription-PCR analyses. Total RNA isolated either from cells or from human colon cancer cell tumor xenograft samples was subjected to reverse transcription with Superscript™ II RNase H—Reverse Transcriptase and random hexanucleotide primers (Invitrogen, Carlsbad, Calif.). The cDNA was subsequently used to perform Real-time PCR by SYBR chemistry (SYBR® Green I; Molecular Probes) for specific transcripts using gene specific primers and Jumpstart Taq DNA polymerase (Sigma-Aldrich, St. Louis, Mo.). […] The changes in mRNA were expressed as fold change relative to control with ±SEM value.
miRNA analysis. Total miRNA was isolated using mirVana™ miRNA isolation kit (Ambion Inc.). Total miRNA isolated either from cells or from human colon cancer cell tumor xenograft samples were subjected to reverse transcription with Superscript™ II RNase H—Reverse Transcriptase and random hexanucleotide primers (Invitrogen, Carlsbad, Calif.). The cDNA was subsequently used to perform Real-time PCR by SYBR chemistry (SYBR® Green I; Molecular Probes) for pri-let-7a transcript using specific primers and Jumpstart Taq DNA polymerase (Sigma-Aldrich, St. Louis, Mo.). […] The changes in pri-miRNA were expressed as fold change relative to control with ±SEM value. Primers used are: […]
Western Blot analysis. HCT116 and SW480 cells were cultured in a 6 well plates to 40% confluency and were transfected with si-DCAMKL-1 or si-Scr for 72 h. Cells or the tumor xenograft samples were lysed and the concentration of protein was determined by BCA protein assay kit (Pierce Biotechnology Inc., Rockford, Ill.). […] The membrane was blocked in 5% non-fat dry milk for 1 h and probed overnight with a rabbit anti-DCAMKL-1 antibody (Abcam Inc., Cambridge, Mass.) or with rabbit anti-c-Myc antibody (Santa Cruz). Subsequently, the membrane was incubated with anti-rabbit or anti-goat IgG horseradish peroxidase-conjugated antibodies (Amersham-Pharmacia) for 1 h at room temperature. The 82 kDa DCAMKL-1 and 49 kDa c-Myc proteins were detected using ECL™ Western Blotting detection reagents (Amersham-Pharmacia). Actin (43 kDa), used as loading control was identified using a goat polyclonal IgG (Santa Cruz Biotechnology Inc., Santa Cruz, Calif.).
Immunohistochemistry. Heat Induced Epitope Retrieval was performed on 4 μm formalin-fixed paraffin-embedded sections utilizing a pressurized Decloaking Chamber (Biocare Medical) in citrate buffer (pH 6.0) at 99° C. for 18 min. (a) Brightfield: Slides were incubated in 3% hydrogen peroxide, then normal serum and BSA at room temperature for 20 min. After incubation with primary antibody [DCAMKL-1 C-terminal (Abcam), anti-c-Myc (Santa Cruz Biotechnologies), L-FABP (Santa Cruz Biotechnologies)], the slides were incubated in peroxidase-conjugated EnVision™+polymer detection kit (DAKO). Slides were developed with Diaminobenzidine (Sigma). (b) Fluorescence: Slides were first incubated in Image-iT FX signal enhancer (Invitrogen), followed by normal serum and BSA at room temperature for 20 min.
Xenograft tumor model. (a) Liposomal preparation: siRNA was administered into the xenografts after incorporation into 1,2-Dioleoyl-sn-Glycero-3-Phosphocholine (DOPC) (Avanti Polar Lipids, Alabaster, Ala.). DOPC and siRNA were mixed in the presence of excess tertiary butanol at a ratio of 1:10 (w/w) (siRNA/DOPC). Tween 20 (Sigma-Aldrich) was added to the mixture at a ratio of 1:19 Tween 20:siRNA/DOPC. The mixture was vortexed and frozen in an acetone/dry ice bath and lyophilized. Before administration, the siRNA preparation was reconstituted in 0.9% sterile saline and injected at a dose of 50 μl (5 μM) per injection. (b) Tumor therapy: Female athymic nude mice (NCr-nu) were purchased from the National Cancer Institute-Frederick Cancer Research and Development Center (Frederick, Md.) and housed in specific pathogen-free conditions.

HCV subgenomic replicon = assay: HCV replication in GS5 cells (Huh7.5 with HCV subgenomic replicon); format: cell-based, hepatitis C virus; settings: 48 hours
Experimental: FIG. 61 illustrates that DCAMKL-1 is required for the HCV replication. A. siRNA against DCAMKL-1 (Si-DCAMKL1, 50 nM and 100 nM) or scrambled siRNA (SCR, 100 nM) were transfected into GS5 cells. Total RNAs were extracted and subjected to real-time quantitative PCR. The levels of HCV and DCAMKL-1 RNAs were considered arbitrary as one unit in untransfected GS5 cells (Cont). Actin mRNA in each sample was used as internal control for PCR. B. Western blot analysis of siRNAs tranfected and untransfected samples as indicated.
Induction of putative stem cell/pluripotency factors by HCV: Normal adult hepatocytes are fully differentiated cells and lack expression of pluripotency factors. However, these cells can be induced to proliferate rapidly after partial hepatectomy and can also be reprogrammed into stem-like cells by forced expression of a cocktail of transcription factors. Thus, the impact of HCV on expression pattern of stem/progenitor cell markers was investigated in GS5 cells, which are derived from hepatoma cell line (Huh7.5) and support constitutive replication of a subgenomic HCV replicon under G418 selection. The replicon expresses HCV nonstructural proteins NS3 through NS5B of the HCV-1a strain and green florescent protein (GFP)-NS5A chimera. Total lysates from parent Huh7.5 and GS5 cells were subjected to Western blot analysis (FIG. 59).
Putative intestinal stem cell marker DCAMKL1 is required for the HCV replication: The eccentric, punctate staining of HCV replication complexes consisting of most of the nonstructural proteins and cellular factors has been a puzzling question. It is known that these replication complexes associate with microtubules in order to replicate the HCV RNA. The DCAMKL1 protein, which binds and polymerizes tubulin into microtubule filaments, is considered as a putative marker for quiescent stem cells in the intestine, and its expression is increased in cancer stem cells. During confocal microscopy, most DCAMKL1 localization was consistently observed in the area containing replication complexes (indicated by NS5A-GFP) and high concentration of microtubules (FIG. 60). The perinuclear co-localization of DCAMKL1 with the NS5A-GFP (indicated by yellow stain) was also observed.

[1] = real-time RT-PCR, compared to control and si-Scr treated tumors

## si-DCAMKL-1: siRNA targeting the coding region of DCAMKL-1 (NM_004734), sequence GGGAGUGAGAACAAUCUAC (SEQ ID NO:3) (chemistry not given here; listed as Homo sapiens)
HCT116 tumor xenografts; Western blot
  DCAMKL-1 protein in tumors: reduced expression
HCT116 tumor xenografts; Western blot analysis
  Notch-1 and cleaved Notch-1 protein in tumors: marked reduction
HCT116 tumor xenografts; Western blot and immunohistochemical analyses
  c-Myc protein in tumors: striking reduction
HCT116 tumor xenografts; compared to controls
  reduction in Notch-1 mRNA in tumors: 55%
  reduction in c-Myc mRNA in tumors: 45%
HCT116 tumor xenografts; [1]
  downregulation of DCAMKL-1 mRNA expression in tumors: 55%
  increase in pri-let-7a miRNA expression in tumors: > 3 fold
HCT116 tumor xenografts; siRNA in liposome preparation injected into tumors from day 15, every third day, 5 doses
  tumor size / xenograft growth: statistically significant reduction; also recorded: near complete tumor growth arrest
HCT116 tumor xenografts; tumors excised at day 28, after 5 injections
  tumor weight: significantly decreased
HCV subgenomic replicon; Western blot
  NS5B polymerase level: decreases
HCV subgenomic replicon; siRNA 50 nM and 100 nM
  HCV RNA level: decreases
  expression of DCAMKL1: effectively inhibited
